The target of experiment [1] is GLP-1 수용체 (GLP-1 receptor) (Homo sapiens, UniProt P43220). As to conditions: read-out: GLP-1의 수용체 EC50; HEK293/CRE-Luc cells with human GLP-1 receptor; 4 h at 37℃; luciferase reporter for cAMP.
A further experiment concerns the target T1, 글루카곤 수용체(GCGR) (Homo sapiens, UniProt P47871).
T1 construct: host or cells: CHO-K1
Nature of the experiment: Glucagon receptor activity, cAMP Hunter eXpress GCGR CHO-K1 GPCR assay. As to conditions: CHO-K1 cells with human glucagon receptor; 30 min at 37℃; cAMP production. It is filed as cell-based. For orientation: Changes in cAMP serve as a functional read-out for many G protein-coupled receptors.

For experiment [2], the system named is C57BL/6 마우스, high trans-fat diet NAFLD model. Briefly: In vivo activity 2 and 3: NAFLD model, C57BL/6 mice on high trans-fat diet (40% fat, 20% fructose, 2% cholesterol) for about 16 weeks. The arrangement: species or system mouse. Conditions: 20 nmol/kg s.c. every third day for 4 weeks; also lower than liraglutide 53 nmol/kg daily.
In experiment [3] the test system is C57BL/6 마우스, high fat diet NAFLD model. Briefly: In vivo activity 1: NAFLD model, C57BL/6 mice on 60% high fat diet for about 24 weeks. On the set-up: species or system mouse. Conditions: 20 nmol/kg s.c. every second day for 2 weeks; also lower than liraglutide 100 nmol/kg daily.

Where no end group is shown, it is not given here. [ ]: non-standard residue; d: D form. Aib = CC(C)(N)C(=O)O

Chain of GLP-1 수용체 (GLP-1 receptor) (P43220 24-463): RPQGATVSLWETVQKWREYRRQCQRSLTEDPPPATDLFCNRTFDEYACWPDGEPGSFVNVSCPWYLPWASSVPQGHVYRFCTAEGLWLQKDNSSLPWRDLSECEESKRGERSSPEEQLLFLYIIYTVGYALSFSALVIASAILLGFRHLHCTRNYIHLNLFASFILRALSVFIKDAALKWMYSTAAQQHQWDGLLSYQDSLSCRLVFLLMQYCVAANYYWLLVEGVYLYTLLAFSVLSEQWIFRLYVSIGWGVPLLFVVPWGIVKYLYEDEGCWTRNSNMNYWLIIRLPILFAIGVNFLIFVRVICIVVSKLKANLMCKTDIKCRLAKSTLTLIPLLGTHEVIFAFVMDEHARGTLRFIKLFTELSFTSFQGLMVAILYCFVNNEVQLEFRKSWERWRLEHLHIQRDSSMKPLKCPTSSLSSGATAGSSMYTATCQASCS
T1 sequence (P47871 26-477): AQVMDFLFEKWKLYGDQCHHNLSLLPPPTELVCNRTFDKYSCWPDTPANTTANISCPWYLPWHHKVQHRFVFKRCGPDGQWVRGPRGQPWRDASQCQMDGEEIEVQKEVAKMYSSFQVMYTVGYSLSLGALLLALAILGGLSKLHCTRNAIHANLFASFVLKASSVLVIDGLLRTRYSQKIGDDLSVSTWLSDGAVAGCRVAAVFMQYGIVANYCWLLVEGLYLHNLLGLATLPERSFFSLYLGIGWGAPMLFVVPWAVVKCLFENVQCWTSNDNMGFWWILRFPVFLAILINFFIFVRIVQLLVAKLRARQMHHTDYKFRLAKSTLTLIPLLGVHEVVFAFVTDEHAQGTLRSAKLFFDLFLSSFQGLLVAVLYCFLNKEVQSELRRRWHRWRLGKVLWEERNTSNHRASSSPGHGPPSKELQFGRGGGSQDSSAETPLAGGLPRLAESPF

Take “실시예 2: 서열번호 2 H(Aib)QGTFTSDYSKYLDEQAAKEFVQWLMNTC polypeptide conjugated to 3중 가지형 mPEG-MAL(MW: 50 kDa) (H[Aib]QGTFTSDYSKYLDEQAAKEFVQWLMNTC; numbers in words are those of the source; also: conjugated to 3-branched mPEG-MAL 50 kDa, site not given here)”: the concentration giving a half-maximal response (EC50) (usually the concentration that produces a half-maximal response) in experiment [1] turned out to be 2.12 nM. Also, the EC50 with 글루카곤 수용체(GCGR) is 47 nM. Further, in experiment [2], the “Hepatic triglyceride vs vehicle group (Fig. 8)” value is recorded as “유의적으로 감소”; the “Liver steatosis, H&E and oil-red-O histology vs vehicle group (Fig. 9)” value is recorded as “현저하게 감소”; the “Liver weight vs vehicle group (Fig. 7)” value is “유의적으로 감소”; the “NAFLD activity score (NAS) vs vehicle group (Fig. 10)” value is on record as “유의적으로 감소”. In addition, the “Serum cholesterol level vs vehicle group (Fig. 6)” value in experiment [2] is given as “유의적으로 감소”. Besides, in experiment [3], the “Liver steatosis, H&E histology vs PBS-treated group (Fig. 5)” value is listed as “현저하게 감소”; the “Liver weight vs PBS-treated group (Fig. 4)” value is recorded as “유의적으로 감소”; the “Serum cholesterol level vs PBS-treated group (Fig. 3)” value is recorded as “유의적으로 감소”.

The values are drawn from patent KR20210110252A, “폴리펩티드를 포함하는 비알코올성 지방간 질환의 예방 또는 치료용 약학 조성물” (㈜ 디앤디파마텍, priority 2019, dated 2021).
